We go through 17 molecules from patent EP4752152A1, “STEROID COMPOUND, AND PREPARATION METHOD THEREFOR AND USE THEREOF” (Cholesgen (Shanghai) Co.Ltd., priority 2023, dated 2025).

The structures appear in SMILES notation.

The experiment relates to SREBP pathway. As to the kind of experiment: SREBP luciferase reporter gene system (SRE-luciferase assay). It counts as cell-based, human. Conditions: Huh-7/SRE-luc cells, sterol-deficient medium, 0.01-10 µM. In outline: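 Huh-7 cells stably carrying LDLR promoter-luciferase plus GFP were treated 16 h in sterol-deficient medium (5% lipoprotein-deficient serum, 2 µM lovastatin, 10 µM mevalonic acid) at 0.01–10 µM. Luciferase/GFP ratio measured as pathway activity; inhibition versus DMSO fitted to a four-parameter model for IC50.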

What is called IC50 is the concentration that inhibits the measured activity by half. On to `C[C@H](CCCC(O)c1cccc2c1nnn2C)[C@H]1CC[C@H]2[C@H]3[C@H](CC[C@]12C)[C@@]1(C)CC[C@H](O)[C@H](O)[C@@H]1CC3(F)F` (single isomer, unassigned) [Compound 291, (1R,3aS,3bS,5aR,6R,7S,9aR,9bS,11aR)-4,4-difluoro-1-[(2R,6R)-6-hydroxy-6-(1-methylbenzo[d][1,2,3]triazol-4-yl)hexan-2-yl]-9a,11a-dimethylhexadecahydro-1H-cyclopenta[1,2-a]phenanthrene-6,7-diol or (1R,3aS,3bS,5aR,6R,7S,9aR,9bS,11aR)-4,4-difluoro-1-[(2R,6S)-6-hydroxy-6-(1-methylbenzo[d][1,2,3]triazol-4-yl)hexan-2-yl]-9a,11a-dimethylhexadecahydro-1H-cyclopenta[1,2-a]phenanthrene-6,7-diol], for which the IC50 (16 hours) is 0.141 µM.
For `COc1cncc(F)c1C(O)CCC[C@@H](C)[C@H]1CC[C@H]2[C@H]3[C@H](CC[C@]12C)[C@@]1(C)CC[C@H](O)[C@H](O)[C@@H]1CC3(F)F` (single isomer, unassigned) [Compound 252, (1R,3aS,3bS,5aR,6R,7S,9aR,9bS,11aR)-4,4-difluoro-1-[(2R,6R)-6-(3-fluoro-5-methoxypyridin-4-yl)-6-hydroxyhexan-2-yl]-9a,11a-dimethylhexadecahydro-1H-cyclopenta[1,2-a]phenanthrene-6,7-diol or (1R,3aS,3bS,5aR,6R,7S,9aR,9bS,11aR)-4,4-difluoro-1-[(2R,6S)-6-(3-fluoro-5-methoxypyridin-4-yl)-6-hydroxyhexan-2-yl]-9a,11a-dimethylhexadecahydro-1H-cyclopenta[1,2-a]phenanthrene-6,7-diol], the IC50 (16 hours) was 0.031 µM.
Take `C[C@H](CCC[C@@H](O)c1ncc(F)cc1F)[C@H]1CC[C@H]2[C@H]3[C@H](CC[C@]12C)[C@@]1(C)CC[C@H](O)[C@H](O)[C@@H]1CC3(F)F` (single isomer, unassigned) [Compound 280]: the IC50 (Homo sapiens, Huh-7, 16 h) was found to be 0.238 µM.
Still for that read-out and setting: the same measure for `C[C@H](CCCC(O)c1ccc(OC(F)(F)F)cc1F)[C@H]1CC[C@H]2[C@H]3[C@H](CC[C@]12C)[C@@]1(C)CC[C@H](O)[C@H](O)[C@@H]1CC3(F)F` (stereo partly drawn) [Compound 62, (1R,3aS,3bS,5aR,6R,7S,9aR,9bS,11aR)-4,4-difluoro-1-[(2R)-6-{2-fluoro-4-[(trifluoromethyl)oxy]phenyl}-6-hydroxyhexan-2-yl]-9a,11a-dimethylhexadecahydro-1H-cyclopenta[1,2-a]phenanthrene-6,7-diol]: 0.728 µM.
Take `C[C@H](CCCC(O)c1cncc2c1cnn2C)[C@H]1CC[C@H]2[C@H]3[C@H](CC[C@]12C)[C@@]1(C)CC[C@H](O)[C@H](O)[C@@H]1CC3(F)F` (single isomer, unassigned) [Compound 287, (1R,3aS,3bS,5aR,6R,7S,9aR,9bS,11aR)-4,4-difluoro-1-[(2R,6S)-6-hydroxy-6-(1-methylpyrazolo[3,4-c]pyridin-4-yl)hexan-2-yl]-9a,11a-dimethylhexadecahydro-1H-cyclopenta[1,2-a]phenanthrene-6,7-diol or (1R,3aS,3bS,5aR,6R,7S,9aR,9bS,11aR)-4,4-difluoro-1-[(2R,6R)-6-hydroxy-6-(1-methylpyrazolo[3,4-c]pyridin-4-yl)hexan-2-yl]-9a,11a-dimethylhexadecahydro-1H-cyclopenta[1,2-a]phenanthrene-6,7-diol]: the IC50 (16 hours) is 0.131 µM.
Regarding `COc1cccc(F)c1C(O)CCCC(C)C1CCC2C3=C(F)CC4C(O)C(O)CCC4(C)C3CCC21C` (single isomer, unassigned) [Compound 163], for the setting “Homo sapiens, Huh-7, 16 h”, the IC50 turned out to be 0.201 µM.
For the molecule `C[C@H](CCC(O)c1ccc(F)nc1OC1CC1)[C@H]1CC[C@H]2[C@H]3[C@H](CC[C@]12C)[C@@]1(C)CC[C@H](O)[C@H](O)[C@@H]1CC3(F)F` (stereo partly drawn) [Compound 382, (1R,3aS,3bS,5aR,6R,7S,9aR,9bS,11aR)-1-[(2R)-5-[2-(cyclopropyloxy)-6-fluoropyridin-3-yl]-5-hydroxypentan-2-yl]-4,4-difluoro-9a,11a-dimethylhexadecahydro-1H-cyclopenta[1,2-a]phenanthrene-6,7-diol], the IC50 (Homo sapiens, Huh-7, 16 h) was found to be 0.057 µM.
As for `COc1nc(C(O)CCC[C@@H](C)[C@H]2CC[C@H]3[C@H]4[C@H](CC[C@]23C)[C@@]2(C)CC[C@H](O)[C@H](O)[C@@H]2CC4(F)F)cs1` (single isomer, unassigned) [Compound 221, (1R,3aS,3bS,5aR,6R,7S,9aR,9bS,11aR)-4,4-difluoro-1-[(2R,6S)-6-hydroxy-6-(2-methoxy-1,3-thiazol-4-yl)hexan-2-yl]-9a,11a-dimethylhexadecahydro-1H-cyclopenta[1,2-a]phenanthrene-6,7-diol or (1R,3aS,3bS,5aR,6R,7S,9aR,9bS,11aR)-4,4-difluoro-1-[(2R,6R)-6-hydroxy-6-(2-methoxy-1,3-thiazol-4-yl)hexan-2-yl]-9a,11a-dimethylhexadecahydro-1H-cyclopenta[1,2-a]phenanthrene-6,7-diol], the IC50 (16 hours) came out at 0.183 µM.
`COc1cc(C(O)CCC[C@@H](C)[C@H]2CC[C@H]3[C@H]4[C@H](CC[C@]23C)[C@@]2(C)CC[C@H](O)[C@H](O)[C@@H]2CC4(F)F)cc(F)n1` (single isomer, unassigned) [Compound 247, (1R,3aS,3bS,5aR,6R,7S,9aR,9bS,11aR)-4,4-difluoro-1-[(2R,6S)-6-(6-fluoro-2-methoxypyridin-4-yl)-6-hydroxyhexan-2-yl]-9a,11a-dimethylhexadecahydro-1H-cyclopenta[1,2-a]phenanthrene-6,7-diol or (1R,3aS,3bS,5aR,6R,7S,9aR,9bS,11aR)-4,4-difluoro-1-[(2R,6R)-6-(6-fluoro-2-methoxypyridin-4-yl)-6-hydroxyhexan-2-yl]-9a,11a-dimethylhexadecahydro-1H-cyclopenta[1,2-a]phenanthrene-6,7-diol]: where the note is “Homo sapiens, Huh-7, 16 h”, the IC50 came out at 0.04 µM.
On to `C[C@H](CCCC(O)c1ccc(F)nc1OCc1ccccc1)[C@H]1CC[C@H]2[C@H]3[C@H](CC[C@]12C)[C@@]1(C)CC[C@H](O)[C@H](O)[C@@H]1CC3(F)F` (stereo partly drawn) [Compound 281, (1R,3aS,3bS,5aR,6R,7S,9aR,9bS,11aR)-1-[(2R)-6-[2-(benzyloxy)-6-fluoropyridin-3-yl]-6-hydroxyhexan-2-yl]-4,4-difluoro-9a,11a-dimethylhexadecahydro-1H-cyclopenta[1,2-a]phenanthrene-6,7-diol], for which the IC50 (Homo sapiens, Huh-7, 16 h) is 0.479 µM.
Consider `COc1c(C(O)CCC[C@@H](C)[C@H]2CC[C@H]3[C@H]4[C@H](CC[C@]23C)[C@@]2(C)CC[C@H](O)[C@H](O)[C@@H]2CC4(F)F)ccc[n+]1[O-]` (stereo partly drawn) [Compound 267, 3-[(5R)-5-[(1R,3aS,3bS,5aR,6R,7S,9aR,9bS,11aR)-4,4-difluoro-6,7-dihydroxy-9a,11a-dimethylhexadecahydro-1H-cyclopenta[1,2-a]phenanthren-1-yl]-1-hydroxyhexyl]-2-methoxypyridine-1-oxide], for which the IC50 (Homo sapiens, Huh-7, 16 h) worked out at 0.424 µM.
In the case of `C[C@H](CCCC(O)c1cccc2[nH]ncc12)[C@H]1CC[C@H]2[C@H]3[C@H](CC[C@]12C)[C@@]1(C)CC[C@H](O)[C@H](O)[C@@H]1CC3(F)F` (single isomer, unassigned) [Compound 273, (1R,3aS,3bS,5aR,6R,7S,9aR,9bS,11aR)-4,4-difluoro-1-[(2R,6S)-6-hydroxy-6-(1H-indazol-4-yl)hexan-2-yl]-9a,11a-dimethylhexadecahydro-1H-cyclopenta[1,2-a]phenanthrene-6,7-diol or (1R,3aS,3bS,5aR,6R,7S,9aR,9bS,11aR)-4,4-difluoro-1-[(2R,6R)-6-hydroxy-6-(1H-indazol-4-yl)hexan-2-yl]-9a,11a-dimethylhexadecahydro-1H-cyclopenta[1,2-a]phenanthrene-6,7-diol], the IC50 (16 hours) turned out to be 0.361 µM.
As for `C[C@H](CCCC(O)c1cnc2c(c1)OC(F)(F)O2)[C@H]1CC[C@H]2[C@H]3[C@H](CC[C@]12C)[C@@]1(C)CC[C@H](O)[C@H](O)[C@@H]1CC3(F)F` (single isomer, unassigned) [Compound 286], the IC50 (16 hours) came to 0.26 µM.
On to `C[C@H](CCCC(O)c1cccc(OC(F)(F)F)c1)[C@H]1CC[C@H]2C3=C(F)C[C@H]4[C@@H](O)[C@@H](O)CC[C@]4(C)[C@H]3CC[C@]12C` (stereo partly drawn) [Compound 88, (1R,3aR,5aR,6R,7S,9aR,9bR,11aR)-4-fluoro-1-[(2R)-6-hydroxy-6-{3-[(trifluoromethyl)oxy]phenyl}hexan-2-yl]-9a,11a-dimethyl-2,3,3a,5,5a,6,7,8,9,9a,9b,10,11,11a-tetradecahydro-1H-cyclopenta[1,2-a]phenanthrene-6,7-diol], for which the IC50 (Homo sapiens, Huh-7, 16 h) was 0.622 µM.
On the same count and under the same terms, with `C[C@H](CCC[C@H](O)c1ccc(F)nc1OCC1COC1)[C@H]1CC[C@H]2[C@H]3[C@H](CC[C@]12C)[C@@]1(C)CC[C@H](O)[C@H](O)[C@@H]1CC3(F)F` [Compound 385, (1R,3aS,3bS,5aR,6R,7S,9aR,9bS,11aR)-4,4-difluoro-1-[(2R,6S)-6-{6-fluoro-2-[(oxetan-3-ylmethyl)oxy]pyridin-3-yl}-6-hydroxyhexan-2-yl]-9a,11a-dimethylhexadecahydro-1H-cyclopenta[1,2-a]phenanthrene-6,7-diol] the figure was 0.332 µM; with `C[C@H](CCCC1(O)CC1)[C@H]1CC[C@H]2[C@H]3[C@H](CC[C@]12C)[C@@]1(C)CC[C@H](O)[C@H](O)[C@@H]1CC3(F)F` [Compound 93, (1R,3aS,3bS,5aR,6R,7S,9aR,9bS,11aR)-4,4-difluoro-1-[(2R)-5-(hydroxycyclopropyl)pentan-2-yl]-9a,11a-dimethylhexadecahydro-1H-cyclopenta[1,2-a]phenanthrene-6,7-diol], 0.613 µM; with `C[C@H](CCC(=O)N(C)c1ccccc1F)[C@H]1CC[C@H]2[C@@H]3CC[C@H]4[C@@H](O)[C@@H](O)CC[C@]4(C)[C@H]3CC[C@]12C` [Compound 47, (3S,4R,5R,8S,9S,10R,13R,14S,17R,20R)-N-(2-fluorophenyl)-3,4-dihydroxy-N-methyl-5α-cholan-24-amide], 0.05 µM.
